Measured values taken from patent US7169778B2, “Pteridinones as kinase inhibitors” (Warner-Lambert Company, priority 1999, dated 2007).

Experiments:
[1] = biological target: N-terminal truncated Wee 1 (Homo sapiens, UniProt P30291); test: Wee 1 OY kinase assay; type: biochemical; conditions: read-out: WEE1OY IC50
Method: These kinase assays are carried out on 96-well filter plates (Millpore, Cat. MADPN0B50) in 50 μL kinase assay buffer (50 mM Tris, pH 8.0, 10 mM NaCl, 10 mM MgCl2, 10 μM ATP with 0.25 μCi [r-32P]ATP, 1 mM DTT) with 0.1 μg purified N-terminal truncated Wee 1 and 6 μg poly(Orn, Tyr)4:1 (Sigma, P4534). The assay is started by adding ATP and incubating at room temperature for 20 minutes with shaking. The reactions are terminated by adding 50 μL ice-cold 20% TCA (trichloracetic acid) with 0.1 M sodium pyrophosphate and shaking the resultant mixture for 1 minute. The plate is then incubated at 4° C. for 1 hour to allow protein to precipitate. These plates are then washed 5 times with 200 μL ice-cold 10% TCA and with 0.1 M sodium pyrophosphate per wash. Twenty-five microliters scintillation liquid is then added to each well, and the plate is counted in Wallac's MicroBeta counter 1450.

C-src kinase = C-src kinase (Homo sapiens, UniProt P12931); test: C-src kinase assay; type: biochemical
Method: C-src kinase was purified from baculovirus infected insect cell lysates using an antipeptide monoclonal antibody directed against the N-terminal amino acids (amino acids 2–17) of c-src. The antibody, covalently linked to 0.65 μm latex beads, was added to a suspension of insect cell lysis buffer comprised of 150 mM NaCl, 50 mM Tris pH 7.5, 1 mM DTT, 1% NP-40, 2 mM EGTA, 1 mM sodium vanadate, 1 mM PMSF, 1 μg/mL each of leupeptin, pepstatin, and aprotinin. Insect cell lysate containing c-src protein was incubated with these beads for 3 to 4 hours at 4° C. with rotation. At the end of the lysate incubation, the beads were rinsed three times in lysis buffer, resuspended in lysis buffer containing 10% glycerol, and frozen. These latex beads were thawed, rinsed three times in assay buffer (40 mM Tris, pH 7.5, 5 mM mgCl2) and suspended in the same buffer. In a Millipore 96-well plate with a 0.65 μm polyvinylidine membrane bottom were added the reaction components: 10 μL C-src beads, 10 μL of 2.5 mg/mL poly GluTyr substrate, 5 μM ATP containing 0.2 μCi labeled ^32P-ATP, 5 μL DMSO containing inhibitors or as a solvent control, and buffer to make the final volume 125 μL. The reaction was started at room temperature by addition of the ATP and quenched 10 minutes later by the addition of 125 μL of 30% TCA, 0.1 M sodium pyrophosphate for 5 minutes on ice. The plate was then filtered and the wells washed with two […] aliquots of 15% TCA, 0.1 M pyrophosphate. The filters were then punched, counted in a liquid scintillation counter, and the data examined for inhibitory activity in comparison to a known inhibitor such as erbstatin. The method is also described in J. Med. Chem., 1994;37:598–609.

[2] = biological target: T1, human FGF-1 (flg) receptor tyrosine kinase (Homo sapiens, UniProt P11362); test: FGF receptor tyrosine kinase assay; type: biochemical; conditions: for inhibition at 5 µM: @ 5 (unit μm), read-out: FGF % @ concentration
T1 construct: amplify a fragment of DNA that codes for the intracellular tyrosine kinase domain; made in house; host or cells: SF9 insect cells (baculovirus)
Description: (§1) Full-length cDNAs for the mouse PDGF-β and human FGF-1 (flg) receptor tyrosine kinases were obtained from J. Escobedo and prepared as described in J. Biol. Chem., 1991;262:1482–1487. PCR primers were designed to amplify a fragment of DNA that codes for the intracellular tyrosine kinase domain. The fragment was inserted into a baculovirus vector, cotransfected with AcMNPV DNA, and the recombinant virus isolated. SF9 insect cells were infected with the virus to overexpress the protein, and the cell lysate was used for the assay. Assays were performed in 96-well plates (100 μL/incubation/well), and conditions were optimized to measure the incorporation of ^32P from γ^32P-ATP into a glutamate-tyrosine co-polymer substrate. Briefly, to each well was added 82.5 μL of incubation buffer containing 25 mM Hepes (pH 7.0), 150 mM NaCl, 0.1% Triton X-100, 0.2 mM PMSF, 0.2 mM Na3VO4, 10 mM MnCl2, and 750 μg/mL of Poly (4:1) glutamate-tyrosine followed by 2.5 μL of inhibitor and 5 μL of enzyme lysate (7.5 μg/μL FGF-TK or 6.0 μg/μL PDGF-TK) to initiate the reaction. Following a 10 minute incubation at 25° C., […] of γ^32P-ATP (0.4 μCi plus 50 μM ATP) was added to each well, and samples were incubated for an additional 10 minutes at 25° C. The reaction was terminated by the addition of 100 μL of 30% TCA containing 20 mM sodium pyrophosphate and precipitation of material onto glass fiber mats (Wallac). Filters were washed three times with 15% TCA containing 100 mM sodium pyrophosphate, and the radioactivity retained on the filters counted in a Wallac 1250 Betaplate reader. Nonspecific activity was defined as radioactivity retained on the filters following incubation of samples with buffer alone (no enzyme). Specific enzymatic activity (enzyme plus buffer) was defined as total activity minus nonspecific activity. The concentration of a compound that inhibited specific activity by 50% (IC50) was determined based on the inhibition curve.

[3] = biological target: T2, mouse PDGF-β receptor tyrosine kinase (Mus musculus, UniProt P05622); test: PDGF receptor tyrosine kinase assay; type: biochemical
T2 construct: amplify a fragment of DNA that codes for the intracellular tyrosine kinase domain; made in house; host or cells: SF9 insect cells (baculovirus)
Description: as §1

N-terminal truncated Wee 1, sequence (P30291 299-569 limits assumed): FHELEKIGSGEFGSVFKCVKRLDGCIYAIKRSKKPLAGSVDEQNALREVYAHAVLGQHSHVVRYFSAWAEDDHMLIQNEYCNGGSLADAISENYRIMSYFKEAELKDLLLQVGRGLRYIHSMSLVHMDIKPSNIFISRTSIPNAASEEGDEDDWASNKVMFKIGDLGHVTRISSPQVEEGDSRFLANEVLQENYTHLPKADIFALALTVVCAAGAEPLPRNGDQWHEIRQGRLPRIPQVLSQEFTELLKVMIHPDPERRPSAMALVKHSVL
T2 sequence (P05622 599-961 limits assumed): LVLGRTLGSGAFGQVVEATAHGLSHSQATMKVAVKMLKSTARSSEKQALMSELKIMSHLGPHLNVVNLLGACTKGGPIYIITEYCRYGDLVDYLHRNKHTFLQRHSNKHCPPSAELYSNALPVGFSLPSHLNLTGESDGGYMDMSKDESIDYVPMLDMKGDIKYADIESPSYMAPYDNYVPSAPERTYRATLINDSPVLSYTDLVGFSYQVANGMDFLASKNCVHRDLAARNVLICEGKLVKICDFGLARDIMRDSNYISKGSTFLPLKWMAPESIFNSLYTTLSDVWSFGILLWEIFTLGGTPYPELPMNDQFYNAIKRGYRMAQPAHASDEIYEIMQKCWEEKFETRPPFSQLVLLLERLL
T1 sequence (P11362 478-767 limits assumed): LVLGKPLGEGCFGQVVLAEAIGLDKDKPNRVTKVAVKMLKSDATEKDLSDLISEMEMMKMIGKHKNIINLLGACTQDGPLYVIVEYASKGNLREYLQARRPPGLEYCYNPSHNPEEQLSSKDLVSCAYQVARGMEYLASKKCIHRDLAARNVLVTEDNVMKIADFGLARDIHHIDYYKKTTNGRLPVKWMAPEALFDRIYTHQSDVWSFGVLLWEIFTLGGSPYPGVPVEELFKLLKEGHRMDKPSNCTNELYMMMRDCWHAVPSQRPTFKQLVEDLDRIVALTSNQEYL
C-src kinase, sequence (P12931 whole entry, the tested form may be a part): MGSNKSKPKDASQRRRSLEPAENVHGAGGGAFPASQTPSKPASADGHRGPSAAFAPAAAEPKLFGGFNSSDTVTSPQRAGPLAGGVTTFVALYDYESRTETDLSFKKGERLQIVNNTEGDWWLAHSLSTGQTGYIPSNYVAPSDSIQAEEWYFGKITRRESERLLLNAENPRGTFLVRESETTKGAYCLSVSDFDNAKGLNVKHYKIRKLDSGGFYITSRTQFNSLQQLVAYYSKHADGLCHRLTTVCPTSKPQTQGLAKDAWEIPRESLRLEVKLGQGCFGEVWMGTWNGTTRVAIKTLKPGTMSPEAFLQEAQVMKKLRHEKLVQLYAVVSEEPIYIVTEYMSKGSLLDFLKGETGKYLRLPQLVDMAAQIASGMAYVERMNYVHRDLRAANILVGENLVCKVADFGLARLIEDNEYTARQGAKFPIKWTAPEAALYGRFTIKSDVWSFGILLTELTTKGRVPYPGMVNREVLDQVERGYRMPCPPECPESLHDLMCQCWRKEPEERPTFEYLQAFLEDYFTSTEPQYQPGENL

Row | IC50 [1] [µM] | melting point [°C] | IC50 (C-src kinase) [µM] | IC50 [2] [µM] | IC50 [3] [µM] | inhibition at 5 µM [2] [%] | SMILES
1 |  | 154 to 155 |  | 30 |  |  | CCN(CC)CCOc1ccc(Nc2ncc3nc(-c4cc(OC)cc(OC)c4)c(=O)n(CC)c3n2)cc1 [Compound 14, 6-(3,5-Dimethoxyphenyl)-8-ethyl-2-[[4-[2-(diethylamino)ethoxyl]-phenyl]amino]-8H-pteridin-7-one]
2 |  | 245 to 246.5 |  |  |  |  | CCn1c(=O)c(-c2cc(OC)cc(OC)c2)nc2cnc(Nc3ccncc3)nc21 [Compound 15, 6-(3,5-Dimethoxyphenyl)-8-ethyl-2-[(pyridin-4-yl)amino]-8H-pteridin-7-one]
3 | 7.4 | 204 to 206 | 1.45 |  |  |  | Cn1c(=O)c(-c2c(Br)cncc2Br)nc2cnc(Nc3ccc(N4CCOCC4)cc3)nc21 [Compound 19, 6-(3,5-Dibromopyridin-4-yl)-8-methyl-2-[[4-(morpholin-4-yl)phenyl]amino]-8H-pteridin-7-one]
4 | > 50 | 275 to 276 | 20 | 0.23 |  |  | COc1nc(OC)c(Cl)c(-c2nc3cnc(Nc4ccc(N5CCOCC5)cc4)nc3n(C)c2=O)c1Cl [Compound 18, 6-(3,5-Dichloro-2,6-dimethoxypyridin-4-yl)-8-methyl-2-[[4-(morpholin-4-yl)phenyl]amino]-8H-pteridin-7-one]
5 | 0.144 | 292 to 293 | 0.057 | > 50 | 7.7 |  | Cn1c(=O)c(-c2c(Cl)cccc2Cl)nc2cnc(Nc3ccc(N4CCOCC4)cc3)nc21 [Compound 2, 6-(2,6-Dichlorophenyl)-8-methyl-2-[[4-(morpholin-4-yl)phenyl]amino]-8H-pteridin-7-one]

Continued, compound first:

Row | SMILES | IC50 [1] [µM] | melting point [°C] | IC50 (C-src kinase) [µM] | IC50 [2] [µM] | IC50 [3] [µM] | inhibition at 5 µM [2] [%]
6 | CCN(CC)C(=O)c1ccc(Nc2ncc3nc(-c4c(Cl)c(OC)nc(OC)c4Cl)c(=O)n(C)c3n2)cc1 [Compound 22, 6-(3,5Dichloro-2,6-dimethoxypyridin-4-yl)-2-[[4-(diethylaminocarbonyl)phenyl]amino]-8-methyl-8H-pteridin-7-one] | > 50 | 274 to 276 | 47 | 0.16 |  | 
7 | Cn1c(=O)c(-c2c(Cl)cncc2Cl)nc2cnc(Nc3ccc(N4CCOCC4)cc3)nc21 [Compound 12, 6-(3,5-Dichloropyridin-4-yl)-8-methyl-2-[[4-(morpholin-4-yl)phenyl]amino]-8H-pteridin-7-one] | 1.01 | 243 to 245 | 0.38 |  | 25.4 | 
8 | CCN(CC)C(=O)c1ccc(Nc2ncc3nc(-c4c(Cl)cccc4Cl)c(=O)n(C)c3n2)cc1 [Compound 6, 6-(2,6-Dichlorophenyl)-2-[[4-(diethylaminocarbonyl)phenyl]amino]-8-methyl-8H-pteridin-7-one] | 0.987 | 239 to 241 | 0.29 | 0.05 | 3.13 | 
9 | CCN(CC)CCOc1ccc(Nc2ncc3nc(-c4c(Cl)cccc4Cl)c(=O)n(C)c3n2)cc1 [Compound 4, 6-(2,6Dichlorophenyl)-2-[[4-[2-(diethylamino)ethoxy]phenyl]amino]-8-methyl-8H-pteridin-7-one] | 0.861 | 156 to 161 | 0.015 |  | 0.7 | 69
10 | CN1CCN(c2ccc(Nc3ncc4[nH]c(=O)c(=O)n(C5CCCC5)c4n3)cc2)CC1 [Compound 24, 8-Cyclopentyl-2-[[4-(4-methylpiperazin-1-yl)phenyl]amino]-5H,8H-pteridine-6,7-dione] |  | 266 to 270 | 4.35 |  |  | 
11 | CCN(CC)C(=O)c1ccc(Nc2ncc3nc(-c4c(Cl)cncc4Cl)c(=O)n(C)c3n2)cc1 [Compound 13, 6-(3,5-Dichloropyridin-4yl)-2-[[4-(diethylaminocarbonyl)phenyl]-amino]-8-methyl-8H-pteridin-7-one] | 4.49 | 230 to 231 | 0.5 |  |  | 17
12 | CCN(CC)CCOc1ccc(Nc2ncc3nc(-c4c(Cl)cncc4Cl)c(=O)n(C)c3n2)cc1 [Compound 20, 6-(3,5-Dichloropyridin-4-yl)-8-methyl-2-[[4-[2-(diethylamino)ethoxy]-phenyl]amino]-8H-pteridin-7-one] | 7.07 | 179 to 180.5 | 0.12 |  |  | 
13 | CCN(CC)C(=O)c1ccc(Nc2ncc3nc(-c4ccccc4)c(=O)n(C)c3n2)cc1 [Compound 5, 2-[[4-(Diethylaminocarbonyl)phenyl]amino]-8-methyl-6-phenyl-8H-pteridin-7-one] | > 50 | 250 to 252 | > 50 |  | > 50 | 38
14 | Cn1c(=O)c(-c2ccccc2)nc2cnc(Nc3ccc(N4CCOCC4)cc3)nc21 [Compound 1] | > 50 | 302 to 304.5 | > 50 | > 50 | > 50 | 
15 | CCN(CC)CCOc1ccc(Nc2ncc3nc(-c4ccccc4)c(=O)n(C)c3n2)cc1 [Compound 3, 2-[[4-[2-(Diethylamino)ethoxy]phenyl]amino]-8-methyl-6-phenyl-8H-pteridin-7-one] | > 50 | 162 to 165 | 1.53 |  | 7.55 | 54
16 | CCN(CC)CCOc1ccc(Nc2ncc3nc(-c4c(Cl)c(OC)nc(OC)c4Cl)c(=O)n(C)c3n2)cc1 [Compound 21, 6-(3,5-Dichloro-2,6-dimethoxypyridin-4-yl)-8-methyl-2-[[4-[2-(diethylamino)ethoxy]phenyl]amino]-8H-pteridin-7-one] | > 50 |  | 6.8 | 0.054 |  | 
17 | O=c1[nH]c2cnc(Nc3ccc(N4CCOCC4)cc3)nc2n(C2CCCC2)c1=O [Compound 23, 8-Cyclopentyl-2-[[4-(morpholin-4-yl]phenyl]amino]-5H,8H-pteridine-6,7-dione] |  | 283 to 286 |  |  |  | 
